# Source: patent US10221144B2, “Antibacterial compounds having broad spectrum of activity” (priority 2014, dated 2019)
# Counter-ions that a name gives are not always drawn. Like-named read-outs stand apart in the source and are kept apart here.
# What was measured:
# Assay type in all cases: biochemical
# S. aureus DNA gyrase = molecular target: T1, S. aureus DNA gyrase (Staphylococcus aureus, UniProt P0A0K8+P20831); assay: DNA gyrase supercoiling assay (S. aureus); conditions: for % inhibition DNA gyrase / inhibition at 200 µM / inhibition at 100 µM / inhibition at 50 µM: n/a = not active; for inhibition at 200 µM: conc. 200 μM
# T1 construct: purchased Inspiralis, UK
# T1 sequence (P0A0K8 whole entry): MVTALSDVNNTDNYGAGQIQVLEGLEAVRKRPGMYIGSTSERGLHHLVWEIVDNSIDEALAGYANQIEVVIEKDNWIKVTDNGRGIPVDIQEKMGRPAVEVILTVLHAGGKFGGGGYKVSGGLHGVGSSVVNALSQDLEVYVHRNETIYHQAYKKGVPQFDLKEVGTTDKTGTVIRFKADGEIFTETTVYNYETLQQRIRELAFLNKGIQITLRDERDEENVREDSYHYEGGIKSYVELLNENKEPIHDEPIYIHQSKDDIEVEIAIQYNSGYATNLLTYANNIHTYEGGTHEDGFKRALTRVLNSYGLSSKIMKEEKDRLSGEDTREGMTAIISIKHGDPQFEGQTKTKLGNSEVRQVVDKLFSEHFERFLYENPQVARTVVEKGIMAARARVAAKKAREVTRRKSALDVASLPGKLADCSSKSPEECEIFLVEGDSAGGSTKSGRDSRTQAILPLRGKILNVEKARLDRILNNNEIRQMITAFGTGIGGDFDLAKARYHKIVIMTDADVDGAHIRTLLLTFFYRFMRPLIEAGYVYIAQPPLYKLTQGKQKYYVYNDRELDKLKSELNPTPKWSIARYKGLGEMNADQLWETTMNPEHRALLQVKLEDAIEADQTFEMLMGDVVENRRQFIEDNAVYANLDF
# T1 sequence (P20831 whole entry): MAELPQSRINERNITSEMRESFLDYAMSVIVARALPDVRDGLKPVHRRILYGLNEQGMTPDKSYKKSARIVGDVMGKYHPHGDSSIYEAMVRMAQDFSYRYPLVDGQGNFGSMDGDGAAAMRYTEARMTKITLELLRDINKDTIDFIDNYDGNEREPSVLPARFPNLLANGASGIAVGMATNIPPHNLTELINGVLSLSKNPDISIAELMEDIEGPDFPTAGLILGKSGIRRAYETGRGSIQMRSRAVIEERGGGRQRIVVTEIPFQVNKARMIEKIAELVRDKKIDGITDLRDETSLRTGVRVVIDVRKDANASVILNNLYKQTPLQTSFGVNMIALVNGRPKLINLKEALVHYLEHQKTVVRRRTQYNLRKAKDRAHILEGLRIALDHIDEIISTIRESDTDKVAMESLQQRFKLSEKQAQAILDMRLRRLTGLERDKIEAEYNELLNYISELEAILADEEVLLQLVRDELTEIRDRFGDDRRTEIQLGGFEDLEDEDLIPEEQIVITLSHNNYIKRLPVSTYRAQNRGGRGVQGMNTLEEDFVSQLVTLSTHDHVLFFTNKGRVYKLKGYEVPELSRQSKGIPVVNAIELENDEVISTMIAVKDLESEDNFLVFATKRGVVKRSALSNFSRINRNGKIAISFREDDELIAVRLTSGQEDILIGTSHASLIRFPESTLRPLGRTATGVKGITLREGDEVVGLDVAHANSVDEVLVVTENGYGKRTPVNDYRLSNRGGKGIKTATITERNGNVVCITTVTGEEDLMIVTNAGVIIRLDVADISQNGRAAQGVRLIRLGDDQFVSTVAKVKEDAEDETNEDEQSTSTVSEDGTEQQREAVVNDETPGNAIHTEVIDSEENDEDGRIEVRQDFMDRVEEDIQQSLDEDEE
# Procedure: (§1) The above compounds were tested for the inhibition of the enzyme DNA gyrase in a gyrase supercoiling assay and for the inhibition of the enzyme topoisomerase IV in a decatenation assay, in both Gram positive and Gram negative bacteria, according to the following methods.
# (§2) Both the assays were carried out according to a set-up method modified from the article to Blanche F, et al. “Differential Behaviors of Staphylococcus aureus and Escherichia coli Type II DNA Topoisomerases”, Antimicrob. Agents Chemother., 1996, Vol. 40, No. 12 p. 2714-2720.
# (§3) The compounds were screened at single concentration (200, 100 or 50 μM), in duplicate.
# (§4) Reagents from S. aureus and E. coli Gyrase Supercoiling Assay kits (Inspiralis, UK) were used. A master mix with a total volume sufficient for the number of reactions to perform was prepared with the following reagents: 5× assay buffer, relaxed pBR322 substrate (0.5 μg/reaction), RNase-DNase free water. Aliquotes of this mix were dispensed in each tube, then 10× compound stock solutions or vehicle control (DMSO), were added to each reaction tube.
# (§5) Reaction was started with E. Coli (2 U/reaction) or S. aureus (1 U/reaction) gyrase enzyme addition.
# (§6) A sample added with an equal volume of dilution buffer was used as negative control (without enzyme).
# (§7) The reaction tubes were gentle vortexed and incubated 30 minutes at 37° C. Each reaction was stopped by adding 30 μl of Stop Buffer and 30 μl chloroform/isoamyl alcohol (24/1), briefly vortexed for 5-10 seconds and centrifuged at 20000×g for 2 minutes. Samples were loaded onto 1% agarose gel and subjected to electrophoresis for 1 hour at 80V constant voltage in TAE (40 mM Tris-acetate, 2 mM EDTA).
# (§8) Data acquisition and analysis. Treatment of relaxed pBR322 with DNA gyrase converted the relaxed topoisomers (DNAs of different linking number) to the supercoiled form of the plasmid, which migrates faster on an agarose gel. An upper band might also be visible, which consists of open-circular (nicked) DNA which is present in the relaxed substrate but co-migrates with some of the relaxed topoisomers.
# (§9) Bands were visualized by ethidium bromide staining (dilution 1:20000) for 30 minutes followed by destaining in distilled water for 10 minutes.
# (§10) In order to evaluate the compounds activity on the enzyme, the bands of supercoiled DNAs in the gel were photographed by a digital imaging system ImageQuant LAS 4000 (GE Healthcare) according to manufacturer's instructions.
# (§11) The fluorescent intensity of each band was analyzed by ImageQuant TL software and it was expressed as volume (volume of the uncalibrated quantity of material in the image feature after subtraction of the background intensity by using rolling ball method).
# (§12) Each band intensity was compared, as percentage, to vehicle sample band intensity, which served as positive control, on the same gel.
# (§13) Inhibitory activity was expressed as percent of inhibition versus the positive control.
# (§14) The supercoiled or decatenated DNA bands obtained as described in Example 1 were analysed as follows.
# (§15) Bands were analyzed by gel documentation equipment (Syngene, Cambridge, UK) and quantitated using Syngene Gene Tools software. Raw gel data (fluorescent band volumes) collected from Syngene, GeneTools gel analysis software were converted to a percentage of the 100% control (the fully supercoiled or decatenated DNA band). […] The IC50 data were calculated by using the global curve fit non-linear regression tool by selecting the Single, 2 Parameter fit function from the Exponential Decay equation category.
# E. coli Topoisomerase IV = molecular target: T2, E. coli Topoisomerase IV (Escherichia coli, UniProt P0AFI2+P20083); assay: Topoisomerase IV decatenation assay (E. coli); conditions: for % inhibition Topo IV / inhibition at 200 µM / inhibition at 100 µM / inhibition at 50 µM: n/a = not active; for inhibition at 200 µM: conc. 200 μM; for inhibition at 200 µM / inhibition at 100 µM / inhibition at 50 µM: read-out: % inhibition Topo IV
# T2 construct: purchased Inspiralis, UK
# T2 sequence (P20083 whole entry): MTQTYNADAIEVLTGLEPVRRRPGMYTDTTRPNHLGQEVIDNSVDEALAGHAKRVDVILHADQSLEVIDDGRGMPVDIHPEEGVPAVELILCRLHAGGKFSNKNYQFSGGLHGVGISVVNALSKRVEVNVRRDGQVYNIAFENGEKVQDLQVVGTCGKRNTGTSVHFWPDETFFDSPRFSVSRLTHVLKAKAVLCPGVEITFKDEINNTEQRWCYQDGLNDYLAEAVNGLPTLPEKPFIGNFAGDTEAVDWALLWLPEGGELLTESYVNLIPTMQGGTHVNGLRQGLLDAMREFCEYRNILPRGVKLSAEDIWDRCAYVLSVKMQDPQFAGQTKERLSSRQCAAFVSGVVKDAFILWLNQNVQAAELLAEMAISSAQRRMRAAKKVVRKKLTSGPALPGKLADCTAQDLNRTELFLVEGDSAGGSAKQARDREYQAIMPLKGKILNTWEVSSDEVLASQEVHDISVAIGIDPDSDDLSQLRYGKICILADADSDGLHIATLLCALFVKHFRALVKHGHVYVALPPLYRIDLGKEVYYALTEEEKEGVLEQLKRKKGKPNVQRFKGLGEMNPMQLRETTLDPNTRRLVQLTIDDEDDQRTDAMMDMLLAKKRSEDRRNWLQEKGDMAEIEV
# T2 sequence (P0AFI2 whole entry): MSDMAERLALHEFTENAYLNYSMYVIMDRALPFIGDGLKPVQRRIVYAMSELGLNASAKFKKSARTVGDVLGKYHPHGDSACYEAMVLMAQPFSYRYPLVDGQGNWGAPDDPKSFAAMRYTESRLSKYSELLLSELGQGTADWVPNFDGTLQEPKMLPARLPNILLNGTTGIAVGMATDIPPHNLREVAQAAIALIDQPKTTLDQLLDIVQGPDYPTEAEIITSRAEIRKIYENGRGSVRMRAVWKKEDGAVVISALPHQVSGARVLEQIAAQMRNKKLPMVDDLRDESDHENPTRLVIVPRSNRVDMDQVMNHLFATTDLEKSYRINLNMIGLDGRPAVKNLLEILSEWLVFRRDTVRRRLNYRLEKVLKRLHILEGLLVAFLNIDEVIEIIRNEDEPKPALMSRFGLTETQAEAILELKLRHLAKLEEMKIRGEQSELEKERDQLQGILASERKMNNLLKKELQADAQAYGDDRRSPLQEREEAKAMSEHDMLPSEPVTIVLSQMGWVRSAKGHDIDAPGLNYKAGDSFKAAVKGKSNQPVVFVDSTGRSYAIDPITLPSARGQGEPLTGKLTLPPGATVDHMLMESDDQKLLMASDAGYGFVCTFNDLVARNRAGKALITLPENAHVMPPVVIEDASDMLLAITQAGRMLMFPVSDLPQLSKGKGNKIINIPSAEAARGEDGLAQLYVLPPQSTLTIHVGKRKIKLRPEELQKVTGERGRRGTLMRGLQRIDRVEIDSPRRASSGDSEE
# Procedure: as §1, §2, §3
# S. aureus and E. coli Topoisomerase IV decatenation kits (Inspiralis, UK) were used. A master mix with a total volume sufficient for the number of reactions to perform was prepared with the following reagents: 5× assay buffer (50 mM HEPES-KOH (pH 7.6), 100 mM potassium glutamate, 10 mM magnesium acetate, 10 mM DTT, 1 mM ATP, 50 μg/ml albumin), kDNA substrate (200 ng/reaction), RNase-DNase free water. Aliquots of this mix were dispensed in each tube, then 10× compound stock solutions or vehicle control (DMSO), were added in each reaction tube.
# Reaction was started with Topoisomerase IV enzyme (0.5 U/reaction) addition.
# as §6
# The reaction tubes were gentle vortexed and incubated 30 minutes at 37° C. Each reaction was stopped by adding 30 μl of Stop Buffer and 30 μl of chloroform/isoamyl alcohol (24/1), briefly vortexed for 5-10 seconds and centrifuged at 20000×g for 2 minutes. Samples taken from the upper phase were loaded into 1% agarose gel and subjected to electrophoresis for 1 hour at 80V constant voltage in TAE (40 mM Tris-acetate, 2 mM EDTA).
# Data acquisition and analysis. Due to the high molecular mass, kDNA could not enter an agarose gel under normal electrophoresis conditions, but remained in the wells. In the presence of Topo IV topoisomerase mini-circles (2.5 Kb) were released from kDNA by decatenation and were quickly and easily resolved in the gel at relatively high voltages.
# Bands were visualized by ethidium bromide staining (dil 1:20000) for 30 minutes followed by destaining in distilled water for 10 minutes.
# For single concentration screening assay, in order to evaluate the compounds activity on the enzymes, the bands of decatenated DNAs in the gel were photographed by a digital imaging system ImageQuant LAS 4000 (GE Healthcare) according to manufacturer's instructions.
# as §11, §12, §13, §14, §15
# E. coli DNA gyrase = molecular target: T3, E. coli DNA gyrase (Escherichia coli, UniProt P0AES4+P0AES6); assay: DNA gyrase supercoiling assay (E. coli); conditions: for % inhibition DNA gyrase / inhibition at 200 µM / inhibition at 100 µM / inhibition at 50 µM: n/a = not active; for inhibition at 200 µM: conc. 200 μM
# T3 construct: purchased Inspiralis, UK
# T3 sequence (P0AES4 whole entry, one chain of several): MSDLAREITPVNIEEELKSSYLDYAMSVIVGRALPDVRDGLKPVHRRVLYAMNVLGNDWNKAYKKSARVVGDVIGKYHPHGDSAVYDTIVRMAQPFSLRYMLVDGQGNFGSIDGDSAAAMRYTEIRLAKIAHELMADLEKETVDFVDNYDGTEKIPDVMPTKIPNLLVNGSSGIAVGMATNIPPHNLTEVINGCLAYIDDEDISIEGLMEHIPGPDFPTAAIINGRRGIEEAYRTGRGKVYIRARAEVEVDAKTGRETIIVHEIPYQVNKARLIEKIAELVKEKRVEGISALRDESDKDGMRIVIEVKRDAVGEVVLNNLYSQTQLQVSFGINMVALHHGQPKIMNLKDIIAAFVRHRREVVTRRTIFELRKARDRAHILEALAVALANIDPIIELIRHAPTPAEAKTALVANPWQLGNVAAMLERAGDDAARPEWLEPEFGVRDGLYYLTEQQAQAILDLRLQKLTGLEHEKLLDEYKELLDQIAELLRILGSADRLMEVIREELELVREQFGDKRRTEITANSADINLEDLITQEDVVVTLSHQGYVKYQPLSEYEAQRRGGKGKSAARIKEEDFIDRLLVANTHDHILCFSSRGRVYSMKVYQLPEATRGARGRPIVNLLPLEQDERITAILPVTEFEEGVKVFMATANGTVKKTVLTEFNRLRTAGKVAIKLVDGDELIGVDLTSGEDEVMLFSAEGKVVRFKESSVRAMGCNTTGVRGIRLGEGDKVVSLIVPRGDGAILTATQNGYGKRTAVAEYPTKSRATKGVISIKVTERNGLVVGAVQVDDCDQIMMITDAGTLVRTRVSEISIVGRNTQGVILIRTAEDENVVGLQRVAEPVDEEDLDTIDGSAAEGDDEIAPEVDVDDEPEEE
# Procedure: as §1, §2, §3, §4, §5, §6, §7, §8, §9, §10, §11, §12, §13, §14, §15
# [1] = S. aureus, concentration-response curve, eight half-log concentrations 0.1 to 300 μM, read-out: IC50 DNA gyrase
# [2] = E. coli, concentration-response curve, eight half-log concentrations 0.1 to 300 μM, read-out: IC50 Topo IV
# [3] = E. coli, concentration-response curve, eight half-log concentrations 0.1 to 300 μM, read-out: IC50 DNA gyrase
compound,measurement,setting,value
"1,3-dichloroisoquinoline [Compound 66]",% inhibition DNA gyrase,"S. aureus DNA gyrase; S. aureus, conc. 100 μM",87%
same,IC50,S. aureus DNA gyrase; [1],12.1 µM
same,% inhibition Topo IV,"E. coli Topoisomerase IV; E. coli, conc. 100 μM",58%
same,IC50,E. coli Topoisomerase IV; [2],3.2 µM
same,% inhibition DNA gyrase,"E. coli DNA gyrase; E. coli, conc. 100 μM",100%
same,IC50,E. coli DNA gyrase; [3],2.3 µM
4-chloro-2H-chromen-2-one [Compound 63],% inhibition Topo IV,"E. coli Topoisomerase IV; E. coli, conc. 100 μM",51%
same,% inhibition DNA gyrase,"E. coli DNA gyrase; E. coli, conc. 100 μM",98%
"5-chloro-1,6-naphthyridine [Compound 65]",% inhibition DNA gyrase,"S. aureus DNA gyrase; S. aureus, conc. 100 μM",80%
same,IC50,S. aureus DNA gyrase; [1],26.8 µM
same,% inhibition Topo IV,"E. coli Topoisomerase IV; E. coli, conc. 100 μM",80%
same,IC50,E. coli Topoisomerase IV; [2],29.3 µM
same,% inhibition DNA gyrase,"E. coli DNA gyrase; E. coli, conc. 100 μM",94%
same,IC50,E. coli DNA gyrase; [3],40.6 µM
"O=c1cc(NC2CCN(CCCc3cccc4ocnc34)CC2)c2ccccc2o1 [Compound 27, 4-({1-[3-(1,3-benzoxazol-4-yl)propyl]piperidin-4-yl}amino)-2H-chromen-2-one]",inhibition at 200 µM,E. coli Topoisomerase IV; E. coli,53%
same,inhibition at 200 µM,E. coli DNA gyrase; E. coli,61%
"O=c1cc(NC2CCN(CCCc3nccc4ccccc34)CC2)c2ccccc2o1 [Compound 29, 4-({1-[3-(isoquinolin-1-yl)propyl]piperidin-4-yl}amino)-2H-chromen-2-one]",IC50,S. aureus DNA gyrase,20 µM
same,inhibition at 200 µM,S. aureus DNA gyrase; S. aureus,86%
same,IC50,E. coli Topoisomerase IV,10 µM
same,inhibition at 200 µM,E. coli Topoisomerase IV; E. coli,100%
same,IC50,E. coli DNA gyrase,6 µM
same,inhibition at 200 µM,E. coli DNA gyrase; E. coli,92%
"O=C1Cc2cccc(CCCN3CCC(Nc4cc(=O)oc5ccccc45)CC3)c2N1 [Compound 40, 7-(3-{4-[(2-oxo-2H-chromen-4-yl)amino]piperidin-1-yl}propyl)-1,3-dihydro-2H-indol-2-one]",inhibition at 200 µM,E. coli Topoisomerase IV; E. coli,78%
same,inhibition at 200 µM,E. coli DNA gyrase; E. coli,54%
"c1ccc2c(N3CCN(CCCNCc4cc5c(cn4)OCS5)CC3)nccc2c1 [Compound 46, 3-[4-(isoquinolin-1-yl)piperazin-1-yl]-N-([1,3]oxathiolo-[5,4-c]pyridin-6-ylmethyl)propan-1-amine]",inhibition at 200 µM,S. aureus DNA gyrase; S. aureus,100%
same,inhibition at 200 µM,E. coli Topoisomerase IV; E. coli,94%
same,inhibition at 200 µM,E. coli DNA gyrase; E. coli,57%
"O=c1cc(NCCCN2CCN(c3nccc4ccc(Cl)cc34)CC2)c2ccccc2o1 [Compound 51, 4-({3-[4-(7-chloroisoquinolin-1-yl)piperazin-1-yl]propyl}amino)-2H-chromen-2-one]",IC50,S. aureus DNA gyrase,4.5 µM
same,inhibition at 100 µM,"S. aureus DNA gyrase; S. aureus, conc. 100 μM",91%
same,IC50,E. coli Topoisomerase IV,2.4 µM
same,inhibition at 100 µM,"E. coli Topoisomerase IV; E. coli, conc. 100 μM",88%
same,IC50,E. coli DNA gyrase,0.9 µM
same,inhibition at 100 µM,"E. coli DNA gyrase; E. coli, conc. 100 μM",100%
"O=c1cc(N[C@H]2C[C@H](N3CCN(c4nccc5ccccc45)CC3)C2)c2ccccc2o1 [Compound 55, trans-4-({3-[4-(isoquinolin-1-yl)piperazin-1-yl]cyclobutyl}amino)-2H-chromen-2-one]",IC50,S. aureus DNA gyrase,5.6 µM
same,inhibition at 100 µM,"S. aureus DNA gyrase; S. aureus, conc. 100 μM",86%
same,IC50,E. coli Topoisomerase IV,2.6 µM
same,inhibition at 100 µM,"E. coli Topoisomerase IV; E. coli, conc. 100 μM",95%
same,IC50,E. coli DNA gyrase,2.1 µM
same,inhibition at 100 µM,"E. coli DNA gyrase; E. coli, conc. 100 μM",94%
"O=c1cc(NCCCN2CCN(c3nccc4cccnc34)CC2)c2ccccc2o1 [Compound 61, 4-({3-[4-(1,7-naphthyridin-8-yl)piperazin-1-yl]propyl}amino)-2H-chromen-2-one]",IC50,S. aureus DNA gyrase,8.7 µM
same,inhibition at 100 µM,"S. aureus DNA gyrase; S. aureus, conc. 100 μM",88%
same,IC50,E. coli Topoisomerase IV,20.2 µM
same,inhibition at 100 µM,"E. coli Topoisomerase IV; E. coli, conc. 100 μM",92%
same,IC50,E. coli DNA gyrase,3.3 µM
same,inhibition at 100 µM,"E. coli DNA gyrase; E. coli, conc. 100 μM",92%
"NC(=O)C1CN(c2nccc3ccccc23)CCN1CCCNc1cc(=O)oc2ccccc12 (stereo not shown) [Compound 89, 4-(isoquinolin-1-yl)-1-{3-[(2-oxo-2H-chromen-4-yl)amino]propyl}piperazine-2-carboxamide hydrochloride]",IC50,E. coli Topoisomerase IV,54 µM
same,inhibition at 50 µM,"E. coli Topoisomerase IV; E. coli, conc. 50 μM",51%
same,IC50,E. coli DNA gyrase,28 µM
same,inhibition at 50 µM,"E. coli DNA gyrase; E. coli, conc. 50 μM",87%
"O=c1cc(NCCCN2CCN(c3nccc4ccccc34)CC2CO)c2ccccc2o1 (stereo not shown) [Compound 90, 4-({3-[2-(hydroxymethyl)-4-(isoquinolin-1-yl)piperazin-1-yl]-propyl}amino)-2H-chromen-2-one]",IC50,S. aureus DNA gyrase,9.3 µM
same,inhibition at 50 µM,"S. aureus DNA gyrase; S. aureus, conc. 50 μM",89%
same,IC50,E. coli Topoisomerase IV,15.5 µM
same,inhibition at 50 µM,"E. coli Topoisomerase IV; E. coli, conc. 50 μM",81%
same,IC50,E. coli DNA gyrase,8.3 µM
same,inhibition at 50 µM,"E. coli DNA gyrase; E. coli, conc. 50 μM",93%
"[O-][n+]1ccc2ccc(F)cc2c1Cl [Compound 100, 1-chloro-7-fluoroisoquinolin-2-ium-2-olate]",% inhibition DNA gyrase,"S. aureus DNA gyrase; S. aureus, conc. 50 μM",91%
same,IC50,S. aureus DNA gyrase; [1],4.7 µM
same,% inhibition Topo IV,"E. coli Topoisomerase IV; E. coli, conc. 50 μM",76%
same,IC50,E. coli Topoisomerase IV; [2],10.2 µM
same,% inhibition DNA gyrase,"E. coli DNA gyrase; E. coli, conc. 50 μM",95%
same,IC50,E. coli DNA gyrase; [3],4.5 µM
"O=c1cc(NCCC[N+]2([O-])CCN(c3nccc4ccc(F)cc34)CC2)c2ccccc2o1 [Compound 105, 4-({3-[4-(7-fluoroisoquinolin-1-yl)-1-oxidopiperazin-1-yl]propyl}amino)-2H-chromen-2-one]",IC50,S. aureus DNA gyrase,6.6 µM
same,inhibition at 50 µM,"S. aureus DNA gyrase; S. aureus, conc. 50 μM",100%
same,IC50,E. coli Topoisomerase IV,5.6 µM
same,inhibition at 50 µM,"E. coli Topoisomerase IV; E. coli, conc. 50 μM",66%
same,IC50,E. coli DNA gyrase,11.4 µM
same,inhibition at 50 µM,"E. coli DNA gyrase; E. coli, conc. 50 μM",91%
"O=c1cc(NCCCN2CCC(c3nccc4ccccc34)CC2)c2ccccc2o1 [Compound 109, 4-({3-[4-(isoquinolin-1-yl)piperidin-1-yl]propyl}amino)-2H-chromen-2-one]",IC50,S. aureus DNA gyrase,20.7 µM
same,inhibition at 50 µM,"S. aureus DNA gyrase; S. aureus, conc. 50 μM",100%
same,IC50,E. coli Topoisomerase IV,5.6 µM
same,inhibition at 50 µM,"E. coli Topoisomerase IV; E. coli, conc. 50 μM",72%
same,IC50,E. coli DNA gyrase,5.1 µM
same,inhibition at 50 µM,"E. coli DNA gyrase; E. coli, conc. 50 μM",100%
